According to ChEMBL document CHEMBL1201862, “PubChem BioAssay data set” (2004):
Values belong to the molecule of their own block, whether it stands above or below them. Calls of active or inactive are those of the source.

Key:
Melanocortin receptor 4 = Melanocortin receptor 4 (Homo sapiens, UniProt P32245); assay: inhibitors of MC4R cAMP signaling – cell-based, TR-FRET, biased antagonists, dose response (AID 602298); type: functional;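 also: antagonist potency against agonist-stimulated cAMP production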
[1] = cAMP pathway inhibition in counterscreen cell line – TR-FRET cAMP detection, counter-screen for MC4R biased antagonist project, dose response (AID 602305); type: functional, cell-based;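 also: U2OS cells stimulated with forskolin near its EC80 as the cAMP inducer; potency is for inhibition of forskolin-stimulated cAMP signaling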
HEK293 = assay: EBV LMP1 TES2 canonical NF-kB signalling blockers – cell-based, HEK293, luciferase, cherry-pick, dose response (AID 588343); type: functional; details: Homo sapiens
[2] = target: Latent membrane protein 1 (Human herpesvirus 4 (strain B95-8), UniProt P03230); assay: LMP1 TES1 pathway selectivity over dsRED control – imaging, HEK293T, dual-color eGFP/dsRED, cherry-picks, selectivity assay for LMP1 NF-kB inhibitor project, dose response (AID 588398); type: functional, cell-based
Chain of Latent membrane protein 1 (P03230 whole entry): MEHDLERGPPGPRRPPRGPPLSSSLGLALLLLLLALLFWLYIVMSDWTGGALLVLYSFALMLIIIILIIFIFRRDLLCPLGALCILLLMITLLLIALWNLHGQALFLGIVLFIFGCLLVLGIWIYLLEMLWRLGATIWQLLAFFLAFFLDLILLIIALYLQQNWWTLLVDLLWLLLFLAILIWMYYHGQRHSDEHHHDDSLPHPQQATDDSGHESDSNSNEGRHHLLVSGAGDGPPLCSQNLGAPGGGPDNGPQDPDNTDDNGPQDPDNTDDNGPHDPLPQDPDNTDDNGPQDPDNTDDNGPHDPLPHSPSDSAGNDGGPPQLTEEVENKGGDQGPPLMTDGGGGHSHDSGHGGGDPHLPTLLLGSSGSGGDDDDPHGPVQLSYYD

[3] = target: Serine/threonine-protein kinase pim-1 (Homo sapiens, UniProt P11309); type: functional
[4] = target: Cell division cycle 7-related protein kinase (Homo sapiens, UniProt O00311); type: functional;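 also: value obtained from a kinome-wide kinase panel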
[5] = target: Homeodomain-interacting protein kinase 2 (Homo sapiens, UniProt Q9H2X6); type: functional;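 also: measured within a kinome-wide kinase profiling panel, HIPK2 being one panel member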
Chain of Homeodomain-interacting protein kinase 2 (Q9H2X6 whole entry): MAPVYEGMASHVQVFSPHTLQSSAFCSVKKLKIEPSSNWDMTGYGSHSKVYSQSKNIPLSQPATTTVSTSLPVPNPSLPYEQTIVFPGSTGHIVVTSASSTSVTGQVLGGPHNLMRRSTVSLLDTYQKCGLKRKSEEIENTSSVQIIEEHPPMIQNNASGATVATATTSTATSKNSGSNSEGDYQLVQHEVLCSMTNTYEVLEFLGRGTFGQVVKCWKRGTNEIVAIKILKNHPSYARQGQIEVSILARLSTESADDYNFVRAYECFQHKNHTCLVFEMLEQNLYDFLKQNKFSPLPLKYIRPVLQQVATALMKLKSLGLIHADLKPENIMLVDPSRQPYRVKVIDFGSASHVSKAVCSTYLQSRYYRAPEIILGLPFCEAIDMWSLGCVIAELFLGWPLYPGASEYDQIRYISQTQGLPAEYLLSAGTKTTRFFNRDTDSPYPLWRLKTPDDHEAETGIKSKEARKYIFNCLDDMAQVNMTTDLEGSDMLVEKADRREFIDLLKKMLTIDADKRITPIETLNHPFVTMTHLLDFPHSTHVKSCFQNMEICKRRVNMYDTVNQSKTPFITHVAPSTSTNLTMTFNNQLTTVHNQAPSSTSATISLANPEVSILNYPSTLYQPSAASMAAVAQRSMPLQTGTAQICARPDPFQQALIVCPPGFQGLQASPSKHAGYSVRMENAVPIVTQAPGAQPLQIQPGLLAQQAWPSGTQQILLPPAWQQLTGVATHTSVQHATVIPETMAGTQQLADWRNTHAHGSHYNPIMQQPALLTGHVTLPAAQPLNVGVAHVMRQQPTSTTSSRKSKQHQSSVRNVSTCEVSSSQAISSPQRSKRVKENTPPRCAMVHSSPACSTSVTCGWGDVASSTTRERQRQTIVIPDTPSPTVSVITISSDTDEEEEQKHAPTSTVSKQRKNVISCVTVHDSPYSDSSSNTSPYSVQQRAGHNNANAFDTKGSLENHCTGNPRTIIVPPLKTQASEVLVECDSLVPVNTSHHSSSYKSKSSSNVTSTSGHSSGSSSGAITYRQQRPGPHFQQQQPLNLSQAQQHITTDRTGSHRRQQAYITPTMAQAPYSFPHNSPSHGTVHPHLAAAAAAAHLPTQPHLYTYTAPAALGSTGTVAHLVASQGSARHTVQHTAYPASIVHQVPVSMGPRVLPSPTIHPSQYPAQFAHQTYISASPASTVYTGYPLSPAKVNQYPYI

[6] = target: Interleukin-1 receptor-associated kinase 4 (Homo sapiens, UniProt Q9NWZ3); type: functional
[7] = target: Glycogen synthase kinase-3 beta (Homo sapiens, UniProt P49841); type: functional;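 also: value comes from a broad kinome profiling panel, with GSK3B as the panel member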
[8] = target: cAMP-dependent protein kinase catalytic subunit alpha (Homo sapiens, UniProt P17612); type: functional
[9] = target: Dual specificity protein kinase CLK4 (Homo sapiens, UniProt Q9HAZ1); type: functional
Chain of Dual specificity protein kinase CLK4 (Q9HAZ1 whole entry): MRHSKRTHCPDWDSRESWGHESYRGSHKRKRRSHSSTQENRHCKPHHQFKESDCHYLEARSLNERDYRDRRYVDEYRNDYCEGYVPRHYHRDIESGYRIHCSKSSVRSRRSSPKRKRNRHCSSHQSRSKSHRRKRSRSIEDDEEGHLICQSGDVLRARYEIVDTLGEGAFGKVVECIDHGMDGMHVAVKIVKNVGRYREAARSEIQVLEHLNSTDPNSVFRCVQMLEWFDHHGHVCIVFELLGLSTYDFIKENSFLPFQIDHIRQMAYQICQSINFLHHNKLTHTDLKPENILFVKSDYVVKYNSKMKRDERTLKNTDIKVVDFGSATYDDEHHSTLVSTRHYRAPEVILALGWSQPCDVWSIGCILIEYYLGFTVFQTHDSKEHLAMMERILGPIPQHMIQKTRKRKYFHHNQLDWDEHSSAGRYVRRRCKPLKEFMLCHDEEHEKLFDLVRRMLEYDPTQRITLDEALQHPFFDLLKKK

[10] = target: Mitogen-activated protein kinase kinase kinase kinase 4 (Homo sapiens, UniProt O95819); type: functional
CHO = CHO cell viability loss, potency – luminescence, cytotoxicity control for TLR9-MyD88 binding inhibitor project, dose response (AID 588339); type: functional, cell-based, hamster; details: Cricetulus griseus;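 also: CHO cells stably coexpressing TLR9 and MyD88 fusions from primary screen; compound exposure lasted 48 hours before viability readout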
Beta Lactamase = Beta Lactamase (Pseudomonas aeruginosa, UniProt Q932Y6); assay: BLA reporter interference, concentration series – BLA reporter cells, FRET fluorescence, artefact control for TLR9-MyD88 binding inhibitor project, dose response (AID 588341); type: cell-based;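 also: cell based assay in CHO-K1 cells stably expressing beta-lactamase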
Chain of Beta Lactamase (Q932Y6 whole entry): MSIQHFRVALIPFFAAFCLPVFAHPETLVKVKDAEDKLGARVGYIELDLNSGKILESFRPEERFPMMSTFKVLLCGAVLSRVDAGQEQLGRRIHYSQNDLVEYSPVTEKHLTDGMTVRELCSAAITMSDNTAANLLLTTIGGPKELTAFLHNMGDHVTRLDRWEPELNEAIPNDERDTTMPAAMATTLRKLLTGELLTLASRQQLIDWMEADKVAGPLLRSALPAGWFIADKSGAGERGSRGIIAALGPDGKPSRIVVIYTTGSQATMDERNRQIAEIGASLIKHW

[11] = target: T1, Corticotropin-releasing factor receptor 2/Corticotropin-releasing factor-binding protein (Homo sapiens, UniProt P24387+Q13324); assay: activators of CRF receptor 2 with binding protein – uHTS hits, confirmation (AID 602473); type: functional; details: read-out: EC50_Mean
T1 sequence (Q13324 whole entry): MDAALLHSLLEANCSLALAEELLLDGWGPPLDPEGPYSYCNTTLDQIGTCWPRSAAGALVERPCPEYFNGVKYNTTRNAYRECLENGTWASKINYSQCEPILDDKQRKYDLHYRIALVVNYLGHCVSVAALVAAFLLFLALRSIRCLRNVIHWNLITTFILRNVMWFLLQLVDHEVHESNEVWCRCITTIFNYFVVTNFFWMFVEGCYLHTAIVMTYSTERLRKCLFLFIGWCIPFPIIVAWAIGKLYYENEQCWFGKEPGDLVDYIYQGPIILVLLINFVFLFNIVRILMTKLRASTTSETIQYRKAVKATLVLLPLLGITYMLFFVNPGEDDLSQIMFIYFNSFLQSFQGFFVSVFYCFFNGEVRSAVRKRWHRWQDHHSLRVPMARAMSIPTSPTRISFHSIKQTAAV
T1 sequence (P24387 whole entry): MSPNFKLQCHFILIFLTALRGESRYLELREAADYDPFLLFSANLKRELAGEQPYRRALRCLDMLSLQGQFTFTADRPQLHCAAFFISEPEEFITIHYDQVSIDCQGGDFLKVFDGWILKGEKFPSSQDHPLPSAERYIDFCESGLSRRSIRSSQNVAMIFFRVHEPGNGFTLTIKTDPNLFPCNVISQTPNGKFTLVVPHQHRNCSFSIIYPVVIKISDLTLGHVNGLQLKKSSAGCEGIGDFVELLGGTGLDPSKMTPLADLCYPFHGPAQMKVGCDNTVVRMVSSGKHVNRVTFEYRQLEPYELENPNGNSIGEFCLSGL

[12] = target: T2, Sentrin-specific protease 8 (Homo sapiens, UniProt Q96LD8); assay: inhibition of human SENP8 cleavage activity – biochemical, luminescence, SAR follow-up (AID 504501); type: functional
T2 sequence (Q96LD8 whole entry): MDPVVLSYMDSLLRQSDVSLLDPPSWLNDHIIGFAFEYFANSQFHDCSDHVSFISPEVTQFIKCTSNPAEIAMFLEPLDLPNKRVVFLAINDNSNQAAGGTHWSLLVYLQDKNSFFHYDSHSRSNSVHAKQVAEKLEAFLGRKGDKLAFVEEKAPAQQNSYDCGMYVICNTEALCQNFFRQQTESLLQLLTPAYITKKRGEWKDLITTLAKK

Caspase-3 = target: T3, Caspase-3 (Homo sapiens, UniProt P42574); assay: SAR Analysis of small molecule inhibitors of Sentrin-specific proteases (SENPs) using a Caspase-3 Selectivity assay. [Related pubchem assays (depositor defined):AID2540, AID2599, AID434973, AID489001]; type: functional
T3 sequence (P42574 whole entry): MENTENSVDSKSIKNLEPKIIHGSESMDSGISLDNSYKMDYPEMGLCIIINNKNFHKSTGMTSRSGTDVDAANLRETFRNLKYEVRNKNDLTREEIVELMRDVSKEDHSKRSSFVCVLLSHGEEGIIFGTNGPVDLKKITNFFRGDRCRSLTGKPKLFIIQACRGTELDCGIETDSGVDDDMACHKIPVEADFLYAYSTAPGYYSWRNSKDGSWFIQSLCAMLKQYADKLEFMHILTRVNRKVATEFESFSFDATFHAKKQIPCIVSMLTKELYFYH

[13] = target: T4, Sentrin-specific protease 6 (Homo sapiens, UniProt Q9GZR1); assay: SAR Analysis of small molecule inhibitors of Sentrin-specific protease 6 (SENP6) using a Luminescent assay. [Related pubchem assays (depositor defined):AID2582, AID2599]; type: functional
T4 sequence (Q9GZR1 whole entry): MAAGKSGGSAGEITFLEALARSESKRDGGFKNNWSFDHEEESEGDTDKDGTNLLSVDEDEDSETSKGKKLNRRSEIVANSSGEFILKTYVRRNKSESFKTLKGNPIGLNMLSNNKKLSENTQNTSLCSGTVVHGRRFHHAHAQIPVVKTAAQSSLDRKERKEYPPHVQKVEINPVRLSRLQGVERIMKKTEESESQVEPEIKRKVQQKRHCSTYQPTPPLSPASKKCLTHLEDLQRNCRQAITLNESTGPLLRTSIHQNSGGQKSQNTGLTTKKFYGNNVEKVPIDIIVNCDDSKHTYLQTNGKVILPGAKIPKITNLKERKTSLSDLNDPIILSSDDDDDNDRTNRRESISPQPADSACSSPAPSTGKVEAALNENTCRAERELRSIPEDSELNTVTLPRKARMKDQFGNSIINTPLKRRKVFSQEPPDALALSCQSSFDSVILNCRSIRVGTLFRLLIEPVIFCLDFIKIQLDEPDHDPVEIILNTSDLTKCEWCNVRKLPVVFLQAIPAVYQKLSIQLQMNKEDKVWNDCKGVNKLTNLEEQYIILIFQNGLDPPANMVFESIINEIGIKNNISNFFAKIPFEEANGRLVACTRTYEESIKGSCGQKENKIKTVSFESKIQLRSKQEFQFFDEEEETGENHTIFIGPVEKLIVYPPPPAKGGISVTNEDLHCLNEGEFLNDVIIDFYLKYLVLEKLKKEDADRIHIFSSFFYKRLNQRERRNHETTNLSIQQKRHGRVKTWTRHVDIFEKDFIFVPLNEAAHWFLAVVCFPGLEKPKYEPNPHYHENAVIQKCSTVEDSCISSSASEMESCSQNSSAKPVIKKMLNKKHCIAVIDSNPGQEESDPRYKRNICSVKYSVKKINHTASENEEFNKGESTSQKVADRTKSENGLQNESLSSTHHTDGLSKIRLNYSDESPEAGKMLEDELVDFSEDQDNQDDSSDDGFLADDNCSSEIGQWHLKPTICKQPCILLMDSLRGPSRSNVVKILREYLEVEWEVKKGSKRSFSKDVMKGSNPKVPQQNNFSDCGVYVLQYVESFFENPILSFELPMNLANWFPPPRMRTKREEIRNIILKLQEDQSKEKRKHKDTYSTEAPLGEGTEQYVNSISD

[14] = target: T5, Sentrin-specific protease 7 (Homo sapiens, UniProt Q9BQF6); assay: inhibition of human SENP7 cleavage activity – biochemical, luminescence, SAR follow-up (AID 504497); type: functional
T5 sequence (Q9BQF6 whole entry): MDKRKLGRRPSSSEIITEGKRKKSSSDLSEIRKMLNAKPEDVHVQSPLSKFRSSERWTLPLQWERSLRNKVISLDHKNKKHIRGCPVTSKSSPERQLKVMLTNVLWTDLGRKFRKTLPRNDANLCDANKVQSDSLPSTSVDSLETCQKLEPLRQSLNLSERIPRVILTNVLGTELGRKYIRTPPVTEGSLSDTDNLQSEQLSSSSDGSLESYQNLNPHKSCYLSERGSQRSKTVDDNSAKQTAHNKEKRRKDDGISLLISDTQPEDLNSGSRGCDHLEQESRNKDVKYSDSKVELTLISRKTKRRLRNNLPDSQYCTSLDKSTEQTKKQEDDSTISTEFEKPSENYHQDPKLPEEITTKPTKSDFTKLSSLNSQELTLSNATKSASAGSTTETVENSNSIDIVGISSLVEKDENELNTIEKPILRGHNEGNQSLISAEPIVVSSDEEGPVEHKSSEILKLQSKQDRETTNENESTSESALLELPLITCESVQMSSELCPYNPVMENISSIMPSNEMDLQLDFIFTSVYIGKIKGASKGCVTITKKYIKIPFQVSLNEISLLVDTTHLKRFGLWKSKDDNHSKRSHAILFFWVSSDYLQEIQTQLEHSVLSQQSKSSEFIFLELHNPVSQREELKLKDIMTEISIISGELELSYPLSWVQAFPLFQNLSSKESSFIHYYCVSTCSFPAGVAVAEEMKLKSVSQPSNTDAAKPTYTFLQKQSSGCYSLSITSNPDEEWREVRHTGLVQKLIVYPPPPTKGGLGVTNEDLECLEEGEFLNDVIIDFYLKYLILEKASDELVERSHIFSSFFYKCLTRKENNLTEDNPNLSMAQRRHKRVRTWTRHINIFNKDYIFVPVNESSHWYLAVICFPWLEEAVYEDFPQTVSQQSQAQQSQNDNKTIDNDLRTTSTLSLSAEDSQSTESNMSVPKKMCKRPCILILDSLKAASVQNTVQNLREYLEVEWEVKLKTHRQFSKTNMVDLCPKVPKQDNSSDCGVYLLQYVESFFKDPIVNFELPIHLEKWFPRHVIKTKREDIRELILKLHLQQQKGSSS

LIM domain kinase 1 = LIM domain kinase 1 (Homo sapiens, UniProt P53667); assay: Navigating the Kinome. Panel member name: LIMK1; type: functional
Chain of LIM domain kinase 1 (P53667 whole entry, the tested form may be a part): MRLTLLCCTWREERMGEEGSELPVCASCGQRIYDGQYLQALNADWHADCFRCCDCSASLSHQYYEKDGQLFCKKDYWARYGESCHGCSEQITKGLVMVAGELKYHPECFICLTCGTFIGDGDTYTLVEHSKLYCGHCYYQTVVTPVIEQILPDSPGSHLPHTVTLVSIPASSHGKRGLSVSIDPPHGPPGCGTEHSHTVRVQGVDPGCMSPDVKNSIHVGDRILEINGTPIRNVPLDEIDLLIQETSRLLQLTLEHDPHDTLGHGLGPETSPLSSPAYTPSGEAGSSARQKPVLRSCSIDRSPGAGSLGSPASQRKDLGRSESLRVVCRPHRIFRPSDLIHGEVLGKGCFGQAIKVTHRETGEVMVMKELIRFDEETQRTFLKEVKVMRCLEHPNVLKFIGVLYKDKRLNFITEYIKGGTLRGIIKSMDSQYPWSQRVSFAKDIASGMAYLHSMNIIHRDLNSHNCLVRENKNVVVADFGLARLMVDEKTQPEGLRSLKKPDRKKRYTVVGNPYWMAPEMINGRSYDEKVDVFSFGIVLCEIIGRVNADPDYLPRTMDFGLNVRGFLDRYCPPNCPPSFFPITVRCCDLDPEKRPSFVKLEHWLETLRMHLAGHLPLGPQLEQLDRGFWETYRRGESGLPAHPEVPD

[15] = target: Serine/threonine-protein kinase Chk1 (Homo sapiens, UniProt O14757); type: functional;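 also: measured as one member of a kinome-wide kinase profiling panel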
[16] = target: Melanin-concentrating hormone receptor 1 (Homo sapiens, UniProt Q99705); assay: Late-stage fluorescence-based counterscreen for antagonists of the G-protein coupled receptor 7 (GPR7): cell-based dose response assay to identify antagonists of the melanin-concentrating hormone receptor 1 (MCHR1) Set 6.; type: functional
[17] = target: T6, Neuropeptides B/W receptor type 1 (Homo sapiens, UniProt P48145); assay: human NPBW1 receptor blockade, IC50 – cell-based, fluorescence, dose response, set 6, late-stage follow-up (AID 588583); type: functional
T6 sequence (P48145 whole entry): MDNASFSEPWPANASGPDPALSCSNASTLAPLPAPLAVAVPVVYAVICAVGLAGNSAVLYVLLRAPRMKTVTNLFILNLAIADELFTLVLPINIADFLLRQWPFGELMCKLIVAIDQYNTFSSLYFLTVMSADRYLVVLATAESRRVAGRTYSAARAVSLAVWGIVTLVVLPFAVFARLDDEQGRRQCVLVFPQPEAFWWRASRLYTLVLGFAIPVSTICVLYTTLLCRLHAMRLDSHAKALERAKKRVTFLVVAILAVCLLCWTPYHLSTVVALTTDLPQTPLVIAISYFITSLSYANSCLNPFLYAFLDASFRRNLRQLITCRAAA

[18] = target: Tyrosine-protein kinase JAK2 (Homo sapiens, UniProt O60674); type: functional;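 also: JAK2 tested as one member of a kinase panel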
Chain of Tyrosine-protein kinase JAK2 (O60674 whole entry): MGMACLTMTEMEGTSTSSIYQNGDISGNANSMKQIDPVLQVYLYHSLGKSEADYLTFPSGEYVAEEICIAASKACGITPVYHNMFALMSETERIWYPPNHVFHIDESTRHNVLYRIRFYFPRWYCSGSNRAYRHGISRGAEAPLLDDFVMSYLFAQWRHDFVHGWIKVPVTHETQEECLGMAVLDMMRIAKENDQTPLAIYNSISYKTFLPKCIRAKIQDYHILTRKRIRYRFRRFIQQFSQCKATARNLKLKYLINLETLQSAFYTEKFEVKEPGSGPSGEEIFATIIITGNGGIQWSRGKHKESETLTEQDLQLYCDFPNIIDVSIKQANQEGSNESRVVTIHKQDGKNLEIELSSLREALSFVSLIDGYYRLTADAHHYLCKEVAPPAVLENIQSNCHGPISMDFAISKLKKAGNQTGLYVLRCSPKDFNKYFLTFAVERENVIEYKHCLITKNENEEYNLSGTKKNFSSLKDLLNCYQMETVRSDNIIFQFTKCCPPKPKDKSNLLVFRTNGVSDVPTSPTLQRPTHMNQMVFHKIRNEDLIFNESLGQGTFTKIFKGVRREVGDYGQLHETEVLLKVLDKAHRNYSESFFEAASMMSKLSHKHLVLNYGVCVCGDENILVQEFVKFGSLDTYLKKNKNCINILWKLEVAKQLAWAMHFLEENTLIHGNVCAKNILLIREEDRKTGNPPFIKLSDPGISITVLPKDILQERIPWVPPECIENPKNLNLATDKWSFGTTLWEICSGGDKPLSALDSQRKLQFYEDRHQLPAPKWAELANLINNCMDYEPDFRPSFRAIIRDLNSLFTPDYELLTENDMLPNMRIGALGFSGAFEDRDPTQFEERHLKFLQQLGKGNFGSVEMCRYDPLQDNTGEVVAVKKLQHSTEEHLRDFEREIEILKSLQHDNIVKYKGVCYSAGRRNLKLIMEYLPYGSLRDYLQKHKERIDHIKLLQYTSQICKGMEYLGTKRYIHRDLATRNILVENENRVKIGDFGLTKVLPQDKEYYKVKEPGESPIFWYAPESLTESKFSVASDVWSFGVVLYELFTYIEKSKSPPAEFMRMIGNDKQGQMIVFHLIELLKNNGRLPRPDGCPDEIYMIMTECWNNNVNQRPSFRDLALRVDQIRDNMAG

[19] = target: Vascular endothelial growth factor receptor 2 (Homo sapiens, UniProt P35968); type: functional
[20] = target: cAMP-dependent protein kinase catalytic subunit PRKX (Homo sapiens, UniProt P51817); type: functional
[21] = target: Leucine-rich repeat serine/threonine-protein kinase 2 (Homo sapiens, UniProt Q5S007); type: functional;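 also: value from a broad kinome-wide panel profiling study in which LRRK2 was one of the kinases tested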
[22] = target: Leukocyte tyrosine kinase receptor (Homo sapiens, UniProt P29376); assay: Navigating the Kinome. Panel member name: LTK; type: functional
Chain of Leukocyte tyrosine kinase receptor (P29376 whole entry): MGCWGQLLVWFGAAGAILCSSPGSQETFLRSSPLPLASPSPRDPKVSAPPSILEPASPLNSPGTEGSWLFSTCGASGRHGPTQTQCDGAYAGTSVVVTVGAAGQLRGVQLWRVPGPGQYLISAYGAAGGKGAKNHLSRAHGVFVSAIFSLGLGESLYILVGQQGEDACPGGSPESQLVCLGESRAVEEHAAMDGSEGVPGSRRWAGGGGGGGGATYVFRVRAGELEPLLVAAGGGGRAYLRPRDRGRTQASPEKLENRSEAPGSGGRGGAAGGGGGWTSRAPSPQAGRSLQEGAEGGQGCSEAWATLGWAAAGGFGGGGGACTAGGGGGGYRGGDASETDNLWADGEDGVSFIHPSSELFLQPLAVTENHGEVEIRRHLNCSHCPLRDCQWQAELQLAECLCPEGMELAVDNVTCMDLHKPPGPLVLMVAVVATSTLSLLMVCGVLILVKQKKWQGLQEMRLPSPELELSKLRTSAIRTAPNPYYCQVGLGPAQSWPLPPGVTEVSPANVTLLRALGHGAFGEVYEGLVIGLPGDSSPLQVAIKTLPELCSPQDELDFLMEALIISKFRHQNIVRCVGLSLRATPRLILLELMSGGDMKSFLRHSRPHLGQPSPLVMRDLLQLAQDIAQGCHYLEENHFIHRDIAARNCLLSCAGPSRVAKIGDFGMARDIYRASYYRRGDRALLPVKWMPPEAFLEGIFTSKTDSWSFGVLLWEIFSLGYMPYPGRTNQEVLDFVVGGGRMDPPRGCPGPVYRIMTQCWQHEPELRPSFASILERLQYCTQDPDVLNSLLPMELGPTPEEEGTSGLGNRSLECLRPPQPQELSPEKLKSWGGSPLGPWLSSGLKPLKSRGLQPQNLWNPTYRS

SMILES: CN1CCC(Oc2ccccc2Sc2ccc(C(F)(F)F)cc2)CC1
IC50 (Melanocortin receptor 4): > 64600 nM (inactive) | IC50 [1]: > 64600 nM (inactive)

SMILES: CC(=O)N1c2ccc(S(=O)(=O)N3CCC(C(=O)N4CCN(c5ccc(Cl)cc5)CC4)CC3)cc2CC1C (stereo not drawn)
AC50 (HEK293): 1010 nM (active) | AC50 [2]: 108000 nM (active)

Ki [3]: 501 nM (active) | Ki [4]: 10 nM (active) | Ki [5]: 100 nM (active) | Ki [6]: > 10000 nM (inactive) | Ki [7]: 15.8 nM (active) | Ki [8]: 1000 nM (active) | Ki [9]: 3.98 nM (active) | Ki [10]: 1580 nM (active)
SMILES: CCCCNc1c(-c2ccc3[nH]ncc3c2)nc2ncccn12

SMILES: CC(O)CN(CC(C)O)c1ccc2c(c1)Cc1cc([N+](=O)[O-])ccc1-2 (stereo not drawn)
IC50 (CHO): > 49800 nM (inactive) | IC50 (Beta Lactamase): 5090 nM (active) | EC50 [11]: 870 nM (active)

IC50 (Caspase-3): > 99000 nM (inactive) | IC50 [13]: > 99000 nM (inactive) | IC50 [14]: > 99000 nM (inactive)
SMILES: Clc1ccc(/C=N/Nc2cc(N3CCOCC3)nc(N3CCOCC3)n2)c(Cl)c1
IC50 [12]: > 99000 nM (inactive)

Ki (LIM domain kinase 1): 2000 nM (active) | Ki [15]: 2510 nM (active)
SMILES: Clc1ccc2c(c1)NC1(CCCCC1)N2

IC50 [16]: 974 nM (active) | IC50 [17]: 974 nM (active)
SMILES: COc1ccc(-c2c(Br)cnn(Cc3cccc4ccccc34)c2=O)cc1

Ki [18]: > 2510 nM (inactive) | Ki [19]: > 2000 nM (inactive) | Ki [20]: 2510 nM (active) | Ki [21]: 2510 nM (active) | Ki [22]: > 2510 nM (inactive)
SMILES: CC(=O)c1c(C)c2cnc(Nc3ccc(N4CCNCC4)cn3)nc2n(C2CCCC2)c1=O [PALBOCICLIB]
